Measured values reported in PMC10945501, “Development and In Vivo Evaluation of Small-Molecule Ligands for Positron Emission Tomography of Immune Checkpoint Modulation Targeting Programmed Cell Death 1 Ligand 1” (Journal of Medicinal Chemistry, 2024).
Several values for one entry are separate records, joined by “and”; a condition that tells them apart may be missing. Identical values can stand only once. Like-named read-outs stand apart in the source and are kept apart here.

Key:
PD-L1 = settings: cited from earlier work
human PD-L1 = biological target: T1, human PD-L1 (Homo sapiens, UniProt Q9NZQ7); assay: HTRF PD-1/PD-L1 binding assay (cell-free); settings: for fold decrease in affinity by methylation at R3*: pairs 4c vs 5a, 4c vs 5b, 4e vs 5c, 4e vs 5d; for IC50: cell-free competitive PD-1/PD-L1 HTRF, mean ± SD, read-out: IC50 (hPD-L1 binding affinity, HTRF)
T1 construct: purchased Cisbio Bioassays SAS, Codolet, France 64PD1PEG
T1 sequence (Q9NZQ7 19-238 limits assumed): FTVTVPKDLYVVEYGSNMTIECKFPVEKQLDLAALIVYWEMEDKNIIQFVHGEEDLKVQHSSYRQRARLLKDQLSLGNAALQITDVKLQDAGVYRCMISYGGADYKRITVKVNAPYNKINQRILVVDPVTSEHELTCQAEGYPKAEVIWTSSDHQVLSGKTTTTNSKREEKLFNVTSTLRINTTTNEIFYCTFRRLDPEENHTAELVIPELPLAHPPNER

CHO-hPD-L1 cells = assay: MTT cell viability assay; assay type: cell-based, Chinese hamster; settings: Cricetulus griseus, 24 h
PD-L1 (CHO-hPD-L1 cells) = biological target: T2, PD-L1 (CHO-hPD-L1 cells) (Homo sapiens, UniProt Q9NZQ7); assay: Competitive radioligand binding assay with [^89Zr]Zr-atezolizumab, PD-L1-positive cells; settings: for % applied activity ([^89Zr]Zr-atezolizumab bound) / blockade of antibody binding: CHO-hPD-L1 cells; for % applied activity ([^89Zr]Zr-atezolizumab bound): preincubation with 5,000 nM blocker; for blockade of antibody binding: highest noncytotoxic concentration; for Ki: range contingent on published KD values of atezolizumab, read-out: Ki (Cheng–Prusoff)
T2 construct: host or cells: CHO (Chinese hamster ovary) cells, kept under G418 selection
T2 sequence (Q9NZQ7 19-290): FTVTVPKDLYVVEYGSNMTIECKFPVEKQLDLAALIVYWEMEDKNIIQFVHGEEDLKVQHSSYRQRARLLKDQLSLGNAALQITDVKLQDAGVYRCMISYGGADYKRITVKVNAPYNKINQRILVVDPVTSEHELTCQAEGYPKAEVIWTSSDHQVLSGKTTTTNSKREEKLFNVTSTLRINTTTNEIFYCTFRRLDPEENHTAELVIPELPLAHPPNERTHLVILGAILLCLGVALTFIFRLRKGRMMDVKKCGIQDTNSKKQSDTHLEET

[1] = system: PD-L1-negative (CHO) cells; assay: Competitive radioligand binding assay with [^89Zr]Zr-atezolizumab, PD-L1-negative cells; parameters: species or system Chinese hamster
Method: When 5a and 5c were administered at their highest noncytotoxic concentrations, a 50% blockade of antibody binding was observed (p = 0.034, p = 0.025, respectively).
Nonspecific binding of MultiScreen plates (Merck KGaA, Darmstadt, Germany) was blocked with additive-free Ham’s F-12 medium for 30 min, followed by the addition of 2 × 10^5 CHO-K1 (ATCC, Manassas, USA) or CHO-hPD-L1 cells in 150 μL of additive-free Ham’s F-12 medium per well. […] Supernatant was removed after 60 min of incubation using the MultiScreenHTS vacuum filtration system (Merck KGaA, Darmstadt, Germany) and cells were washed twice with DPBS. After drying, filters were punched and measured in a Wizard^2 γ counter (PerkinElmer, Waltham, USA).

[2] = Lipophilicity by HPLC method (μHPLC logD); settings: for chromatographic logD: pH 7.4, μHPLC logD
[3] = literature IC50 as stated in the original patent, read-out: Lit. IC50
[4] = preincubation with 5,000 nM blocker
[5] = read-out: IC50 (Figure 1, previously reported ligands)

## Cc1c(COc2cc(CNC[C@@H](O)C(=O)O)ccc2C(F)(F)F)cccc1-c1ccc2c(c1)OCCO2 [BMS-114]
PD-L1; [3]
  IC50: 43 nM

## Cc1c(COc2ccc(CN[C@H](CO)C(=O)O)c(OCc3cccc(C#N)c3)c2)cccc1-c1ccccc1 [BMS-1016]
PD-L1; [3]
  IC50: 4.55 nM

## CC(=O)NCCNCc1ccc(OCc2cccc(-c3ccccc3)c2C)cc1OCc1ccc(C(=O)O)cc1 [BMS-1043]
PD-L1; [3]
  IC50: 239 nM

## CC(=O)NCCNCc1ccc(OCc2cccc(-c3ccccc3)c2C)cc1OCc1ccccc1[N+](=O)[O-] [BMS-1057]
PD-L1; [3]
  IC50: 986 nM

## CC(=O)NCCNCc1ccc(OCc2cccc(-c3ccccc3)c2C)cc1OCc1cccc(OC(F)(F)F)c1 [BMS-1082]
PD-L1; [3]
  IC50: 828 nM

## CC(=O)NCCNCc1ccc(OCc2cccc(-c3ccccc3)c2C)cc1OCc1cc(C#N)ccc1F [BMS-1095]
PD-L1; [3]
  IC50: 81.2 nM

## CC(=O)NCCNCc1ccc(OCc2cccc(-c3ccccc3)c2C)cc1OCc1ccc(F)c(C)c1 [BMS-1108]
PD-L1; [3]
  IC50: 624 nM

## CC(=O)NCCNCc1ccc(Oc2cccc(-c3ccccc3)c2C)cc1OCc1cccc(NC(=O)OC(C)(C)C)c1 [BMS-1119]
PD-L1; [3]
  IC50: 14200 nM

## Cc1c(COc2cc(OCc3cccc(C#N)c3)c(CN[C@H](CCO)C(=O)O)cc2Cl)cccc1-c1ccc2c(c1)OCCO2 [BMS-1205]
PD-L1; [3]
  IC50: 2.71 nM

## Cc1c(COc2cc(OCc3cccc(C#N)c3)c(CNC(C(=O)O)C(C)(C)O)cc2Cl)cccc1-c1ccc2c(c1)OCCO2 (stereo not shown) [BMS-1210]
PD-L1; [3]
  IC50: 12.7 nM

## Cc1c(COc2cc(OCc3cccc(C#N)c3)c(CNC(CO)(Cc3ccccc3)C(=O)O)cc2Cl)cccc1-c1ccc2c(c1)OCCO2 (stereo not shown) [BMS-1218]
PD-L1; [3]
  IC50: 10.1 nM

## Cc1c(COc2cc(OCc3cccc(C#N)c3)c(CNC3(C(=O)O)CCN(C)CC3)cc2Cl)cccc1-c1ccc2c(c1)OCCO2 [BMS-1220]
PD-L1; [3]
  IC50: 6.07 nM

## Cc1c(COc2ccc(CN[C@](C)(CO)C(=O)O)c(OCc3cccc(C#N)c3)c2Cl)cccc1-c1ccc2c(c1)OCCO2 [BMS-1239]
PD-L1; [3]
  IC50: 149 nM

## Cc1c(COc2cc(OCc3cncc(C#N)c3)c(CNC[C@@H](O)CC(=O)O)cc2Cl)cccc1-c1ccc2c(c1)OCCO2 [BMS-1250]
PD-L1; [3]
  IC50: 1.19 nM

## Cc1cc(CN2CCCC[C@@H]2C(=O)O)c(OCc2cncc(C#N)c2)cc1OCc1cccc(-c2ccc3c(c2)OCCO3)c1C [BMS-1288]
PD-L1; [3]
  IC50: 1.88 nM

## Cc1cc(CNCCO)c(OCc2cncc(C#N)c2)cc1OCc1cccc(-c2ccc3c(c2)OCCO3)c1C#N [BMS-1306]
PD-L1; [3]
  IC50: 0.92 nM

## Cc1c(COc2cc(OCc3cncc(C(=O)O)c3)c(CN[C@@H](CCCN)C(=O)O)cc2Cl)cccc1-c1ccc2c(c1)OCCO2 [BMS-2002]
PD-L1; [3]
  IC50: 10 nM

## Cc1c(COc2cc(OCc3cncc(C#N)c3)c(CN[C@@H](Cc3cccnc3)C(=O)O)cc2Cl)cccc1-c1ccc2c(c1)OCCO2 [BMS-2010]
PD-L1; [3]
  IC50: 50 nM

## Cc1c(COc2cc(OCc3cncc(S(C)(=O)=O)c3)c(CO)cc2Cl)cccc1-c1ccc2c(c1)OCCO2 [BMS-3013]
PD-L1; [3]
  IC50: 80 nM

## Cc1c(COc2cc(OCc3cncc(C#N)c3)c(CN[C@H](CC(N)=O)C(=O)O)cc2Cl)cccc1-c1ccc2c(c1)OCCO2 [BMS-3024]
PD-L1; [3]
  IC50: 5.54 nM

## COc1ccccc1COc1cc(OCc2cccc(-c3ccc4c(c3)OCCO4)c2C)c(Cl)cc1CN1CCCC[C@H]1C(=O)O [BMS-3029]
PD-L1; [3]
  IC50: 2350 nM

## Cc1c(COc2cc(OCc3ccnc(C#N)c3)c(CN(C)[C@H](CO)C(=O)O)cc2Cl)cccc1-c1ccc2c(c1)OCCO2 [Compound 5a, N-(5-Chloro-2-((2-cyanopyridin-4-yl)methoxy)-4-((3-(2,3-dihydrobenzo[b][1,4]dioxin-6-yl)-2-methylbenzyl)oxy)benzyl)-N-methyl-D-serine]
Human PD-L1; IC50 ratio
  fold decrease in affinity by methylation at R3*: 1.02 fold
Human PD-L1
  IC50: 6.2 ± 0.6 nM
CHO-hPD-L1 cells; read-out: Relative EC50 (cell viability, MTT)
  EC50: 20600 nM
PD-L1 (CHO-hPD-L1 cells)
  % applied activity ([^89Zr]Zr-atezolizumab bound): 4.2 % applied activity
  blockade of antibody binding: 50%
  Ki: 700 to 4500 nM
[1]; [4]
  % applied activity ([^89Zr]Zr-atezolizumab bound): 0.2 % applied activity
[2]
  chromatographic logD: 3.36 ± 0.04

## Cc1c(COc2cc(OCc3ccnc(C#N)c3)c(CN(C)CCO)cc2Cl)cccc1-c1ccc2c(c1)OCCO2 [Compound 5c, 4-((4-Chloro-5-((3-(2,3-dihydrobenzo[b][1,4]dioxin-6-yl)-2-methylbenzyl)oxy)-2-(((2-hydroxyethyl)(methyl)amino)methyl)phenoxy)methyl)picolinonitrile]
Human PD-L1; IC50 ratio
  fold decrease in affinity by methylation at R3*: 1.32 fold
Human PD-L1
  IC50: 10 nM and 10.2 nM
CHO-hPD-L1 cells; CHO-hPD-L1 cells, read-out: EC50 (cell viability, MTT)
  EC50: 11600 nM
PD-L1 (CHO-hPD-L1 cells)
  % applied activity ([^89Zr]Zr-atezolizumab bound): 4.7 % applied activity
  blockade of antibody binding: 50%
  Ki: 700 to 4500 nM
[1]; [4]
  % applied activity ([^89Zr]Zr-atezolizumab bound): 0.1 % applied activity
[2]; pH 7.4
  μHPLC logD: 4.9 ± 0.3
[2]
  chromatographic logD: 4.93 ± 0.27

## CC(=O)NCCN(Cc1cc(Cl)c(OCc2cccc(-c3ccc4c(c3)OCCO4)c2C)cc1OCc1cccc(C#N)c1)C(=O)OCCF [Compound 5j, 2-Fluoroethyl (2-acetamidoethyl)(5-chloro-2-((3-cyanobenzyl)oxy)-4-((3-(2,3-dihydrobenzo[b][1,4]dioxin-6-yl)-2-methylbenzyl)oxy)benzyl)carbamate]
Human PD-L1; IC50 ratio, pairs 4f vs 5h, 4j vs 5j
  fold decrease in affinity by fluoroethylation / fluoroethyl carbamylation at R3*: 160 fold
Human PD-L1
  IC50: 1700 nM
[2]
  chromatographic logD: 4.9 ± 0.3

## N#Cc1cncc(COc2cc(OCc3cccc(-c4ccccc4)c3Br)c(Cl)cc2CN2CCCC[C@H]2C(=O)O)c1 [Example 8]
PD-L1; [5]
  IC50: 0.01 to 0.1 nM

## N#Cc1cc(COc2cc(OCc3cccc(-c4ccc5c(c4)OCCO5)c3Br)c(Cl)cc2CN2CCCC[C@H]2C(=O)O)ccn1 [Example 15]
PD-L1; [5]
  IC50: 0.001 to 0.01 nM

## COc1cc(OCc2cccc(-c3ccccc3)c2C)cc(OC)c1CN1CCCC[C@H]1C(=O)O [PD-1/PD-L1 Inhibitor 1, reference compound]
CHO-hPD-L1 cells; read-out: EC50 (cell viability, MTT)
  EC50: 52300 nM

## atezolizumab: high-affinity anti-PD-L1 antibody used for reference [reference compound]
Human PD-L1
  IC50: 4.1 nM
[1]; preincubation with 200 nM blocker
  % applied activity ([^89Zr]Zr-atezolizumab bound): 0.1 % applied activity
